These results are taken from patent publication US6706880B2 (Research Triangle Institute, priority 1990, dated 2004).

Molecules are shown by their SMILES. Where a name gives a salt, the structure may show the parent alone. Read-outs that look alike come from different tables or passages of the source.

Assay [1] has as its target T1, serotonin transporter (Rattus norvegicus, UniProt P31652).
T1 construct: from tissue
The assay can be described thus: Inhibition of [3H]paroxetine radioligand binding at the serotonin transporter. From the text: (§1) Illustrative in vitro assays for binding are described in Boja et al Ann. NY Acad. Sci. 654:282-291 (1992), which is incorporated herein by reference in its entirety. […] Alternatively, the compounds may be analyzed by their ability to inhibit reuptake of a labelled neurotransmitter in a sample, in particular, in synaptosomes.

Assay [2] deals with dopamine transporter (UniProt P23977). It counts as binding.
Description: as §1

Assay [3] deals with norepinephrine transporter (UniProt Q9WTR4). The assay is described as follows: Inhibition of [3H]nisoxetine radioligand binding at the norepinephrine transporter.
Description: as §1

Setting [4] is: IC50 5-HT [3H]-paroxetine, Table IV.
[5] abbreviates: read-out: IC50 DA [3H]-WIN 35,428, Table IV.
Where [6] appears, read: read-out: IC50 NE [3H]-nisoxetine, Table IV.
The mark [7] stands for this setting: IC50 5-HT [3H]-paroxatine, Table II.
[8] abbreviates: read-out: IC50 NE [3H]-nisoxetine, Table II.
Where [9] appears, read: 5-HT=[3H] paroxetine, read-out: 5-HT IC50 for inhibition of radioligand binding.
The mark [10] stands for this setting: read-out: DA IC50 for inhibition of radioligand binding, DA=[3H]WIN 35,428.
Where [11] appears, read: read-out: NEN IC50 for inhibition of radioligand binding, NEN=[3H] nisoxetine.
Setting [12] is: 5-HT IC50 for inhibition of radioligand binding, 5-HT=[3H] paroxetine.

T1 sequence (P31652 whole entry): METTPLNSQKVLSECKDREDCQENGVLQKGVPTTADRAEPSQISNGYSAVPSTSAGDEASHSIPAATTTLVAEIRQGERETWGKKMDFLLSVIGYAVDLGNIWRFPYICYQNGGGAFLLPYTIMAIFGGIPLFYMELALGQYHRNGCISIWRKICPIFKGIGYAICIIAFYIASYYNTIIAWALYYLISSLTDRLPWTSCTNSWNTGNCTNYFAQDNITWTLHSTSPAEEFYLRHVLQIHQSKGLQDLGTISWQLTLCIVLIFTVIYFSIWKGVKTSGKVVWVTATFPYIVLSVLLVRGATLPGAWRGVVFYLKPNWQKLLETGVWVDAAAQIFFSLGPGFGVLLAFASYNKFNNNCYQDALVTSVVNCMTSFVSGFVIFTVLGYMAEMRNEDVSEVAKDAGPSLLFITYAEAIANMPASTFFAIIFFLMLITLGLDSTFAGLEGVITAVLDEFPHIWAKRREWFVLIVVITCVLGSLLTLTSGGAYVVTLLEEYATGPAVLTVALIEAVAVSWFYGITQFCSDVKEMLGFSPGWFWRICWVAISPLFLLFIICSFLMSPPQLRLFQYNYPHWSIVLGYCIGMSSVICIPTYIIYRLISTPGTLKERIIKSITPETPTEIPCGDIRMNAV

Consider `CN1[C@H]2CC[C@@H]1[C@@H](CO)[C@@H](c1ccc(Cl)cc1)C2` [RTI-93], for which the half-inhibitory concentration (IC50) (in general, the concentration that inhibits the measured activity by half) in assay [1] (setting [4]) stood at 204 ± 16 nM; in assay [2] (setting [5]) it was 1.53 ± 0.15 nM; in assay [3] (setting [6]) it was 43.8 ± 6.4 nM.

In the case of `CN1[C@H]2CC[C@@H]1[C@@H](CO)[C@@H](c1ccc(Br)cc1)C2` [RTI-99], the IC50 in assay [1] (setting [4]) amounted to 51 ± 4.6 nM; in assay [2] (setting [5]) it was 1.49 ± 0.06 nM.

For `CN1[C@H]2CC[C@@H]1[C@@H](CO)[C@@H](c1ccc(F)cc1)C2` [RTI-100], the IC50 in assay [1] (setting [4]) was 4740 ± 335 nM; in assay [2] (setting [5]) it was 47 ± 4.6 nM.

With `CN1[C@H]2CC[C@@H]1[C@@H](C(=O)O)[C@@H](c1ccc(I)cc1)C2` [RTI-102], the IC50 was 1930 ± 120 nM in assay [1] (setting [4]), 474 ± 57 nM in assay [2] (setting [5]) and 43400 nM in assay [3] (setting [6]).

Regarding `CN1[C@H]2CC[C@@H]1[C@@H](C(=O)O)[C@@H](c1ccc(Br)cc1)C2` [RTI-103], the IC50 in assay [1] (setting [4]) amounted to 3070 ± 208 nM; in assay [2] (setting [5]), 278 ± 43 nM; in assay [3] (setting [6]), 17400 nM.

With `CN1[C@H]2CC[C@@H]1[C@@H](C(=O)O)[C@@H](c1ccc(F)cc1)C2` [RTI-104], the IC50 in assay [1] (setting [4]) was more than 100 nM; in assay [2] (setting [5]) it was 2740 ± 141 nM; in assay [3] (setting [6]), more than 100000 nM.

On to `Cc1ccc([C@H]2C[C@@H]3CC[C@H]([C@H]2CN)N3C)cc1` [RTI-131], for which the IC50 was found to be 855 ± 52 nM in assay [1] (setting [4]), 10.5 ± 1.7 nM in assay [2] (setting [5]) and 120 ± 20 nM in assay [3] (setting [6]).

`Cc1ccc([C@H]2C[C@@H]3CC[C@H]([C@H]2C#N)N3C)cc1` [RTI-158, 3β-(4-Methylphenyl)-tropane-2β-nitrile Hydrochloride]: the IC50 stood at 5100 ± 315 nM in assay [1] (setting [4]), 57 ± 7.3 nM in assay [2] (setting [5]) and 1620 ± 136 nM in assay [3] (setting [6]).

Turning to `CN1[C@H]2CC[C@@H]1[C@@H](c1nnn[nH]1)[C@@H](c1ccc(Cl)cc1)C2` [RTI-163, 3β-(4-Chlorophenyl)-tropane-2β-tetrazole], the IC50 in assay [1] (setting [7]) was 5460 ± 64 nM; in assay [3] (setting [8]) it was 17400 nM.

For the compound `CNC[C@H]1[C@@H](c2ccc(C)cc2)C[C@@H]2CC[C@H]1N2C` [RTI-164], the figures for the IC50 in assay [1] (setting [4]), in assay [2] (setting [5]) and in assay [3] (setting [6]) were 2250 ± 94 nM, 13.6 ± 2.03 nM and 280 ± 19 nM, respectively.

Turning to `Cc1cc([C@H]2[C@@H](c3ccc(Cl)cc3)C[C@@H]3CC[C@H]2N3C)on1` [RTI-165, 3β-(4-Chlorophenyl)-2β-(3-methylisoxazol-5-yl)tropane Hydrochloride], the IC50 was 572 ± 58 nM in assay [1] (setting [7]); 0.59 ± 0.04 nM in assay [2] (read-out: IC50 DA [3H]-WIN 35,428, Table II); 181 ± 12 nM in assay [3] (setting [8]).

For the compound `COC(=O)C1C(c2ccc(Cl)cc2)CC2CCC1N2C` (stereo not shown) [RTI-4229-31], the IC50 in assay [1] (setting [9]) stood at 44.5 nM.

With `COC(=O)C1C(c2ccc(C)cc2)CC2CCC1N2C` (stereo not shown) [RTI-4229-32], the values for the IC50 in assay [2] (setting [10]) and in assay [3] (setting [11]) were 1.71 nM and 60 nM, respectively.

With `COC(=O)C1C(c2ccc(Br)cc2)CC2CCC1N2C` (stereo not shown) [RTI-4229-51], the IC50 was 240 nM in assay [1] (setting [12]) and 1.69 nM in assay [2] (setting [10]).

Regarding `COC(=O)C1C(c2ccc(I)cc2)CC2CCC1N2C` (stereo not shown) [RTI-4229-55], the values for the IC50 in assay [1] (setting [9]), in assay [2] (setting [10]) and in assay [3] (setting [11]) were 4.21 nM, 1.26 nM and 36 nM, respectively.

For the compound `CN1C2CCC1C(C(=O)OCCc1ccc(N)c(I)c1)C(c1ccc(Cl)cc1)C2` (stereo not shown) [RTI-4229-77], the values for the IC50 in assay [2] (setting [10]) and in assay [3] (setting [11]) were 2.51 nM and 2250 nM, respectively.

As to `CCc1ccc(C2CC3CCC(C2C(=O)OC)N3C)cc1` (stereo not shown) [RTI-4229-83], the IC50 in assay [1] (setting [9]) worked out at 28.4 nM; in assay [2] (setting [10]), 55 nM.

`Cc1noc(C2C(c3ccccc3)CC3CCC2N3C)n1` (stereo not shown) [RTI-4229-87]: the figures for the half-maximal inhibitory concentration (IC50) in assay [1] (setting [12]), in assay [2] (setting [10]) and in assay [3] (setting [11]) were 28400 nM, 204 nM and 35800 nM, respectively.

`COC(=O)C1C(c2ccc(F)c(C)c2)CC2CCC1N2C` (stereo not shown) [RTI-4229-96]: the IC50 in assay [1] (setting [12]) is 76 nM; in assay [2] (setting [10]) it was 2.95 nM; in assay [3] (setting [11]), 520 nM.

For `COC(=O)[C@@H]1C2CCC(C[C@@H]1c1ccc(N)c(Br)c1)N2C` (stereo partly shown) [RTI-4229-97], the IC50 is 181 nM in assay [1] (setting [12]), 3.91 nM in assay [2] (setting [10]) and 282 nM in assay [3] (setting [11]).

For `COC(=O)[C@@H]1C2CCC(C[C@@H]1c1ccc(I)cc1)N2` (stereo partly shown) [RTI-4229-98], the IC50 in assay [1] (setting [12]) was determined as 0.36 nM; in assay [2] (setting [10]), 0.69 nM; in assay [3] (setting [11]) it was 11 nM.

On to `CN1C2CCC1C(CO)C(c1ccc(I)cc1)C2` (stereo not shown) [RTI-4229-101], for which the IC50 in assay [1] (setting [12]) was determined as 26 nM; in assay [1] (setting [4]) it was 26 ± 3.2 nM; in assay [2] (setting [10]) it was 2.2 nM; in assay [2] (setting [5]) it was 2.2 ± 0.19 nM.

For `CC(=O)OC[C@@H]1C2CCC(C[C@@H]1c1ccc(Cl)cc1)N2C` (stereo partly shown) [RTI-4229-105], the IC50 in assay [1] (setting [12]) amounted to 143 nM; in assay [1] (setting [4]) it was 143 ± 25 nM; in assay [2] (setting [10]) it was 1.6 nM; in assay [2] (setting [5]), 1.8 ± 0.05 nM; in assay [3] (setting [6]) it was 127 ± 5.9 nM; in assay [3] (setting [11]) it was 127 nM.
